IC50 and melting point data for 24 molecules are collected here from patent publication US20060004028A1, “Novel PARP inhibitor” (MOCHIDA PHARMACEUTICAL CO., LTD., priority 2002, published 2006).

The IC50 is the concentration that gives 50% inhibition. Lower therefore signals greater potency. Usually melting point stands for the temperature, or range, at which the solid turns liquid.

In one series the target is T1, PARP (Homo sapiens, UniProt P09874).
T1 construct: purchased Travigen (Trevigen) 4669-96-K
As to the kind of experiment: Measurement of PARP inhibitory activity (PARP Inhibition Assay kit, ADP-ribosylated histone). The format is biochemical. The settings on record: HSA PARP Enzyme, histone-coated plate, absorbance at 450 nm. As for the experimental part: PARP activity is determined by measuring the amount of ADP-ribosylated histone protein applied onto an assay plate according to the manual of a measurement kit “PARP Inhibition Assay” (produced by Travigen, catalog number: 4669-96-K). Specifically, 25 μL/well of “2×PARP cocktail” (containing 800 μM of NAD, 50 μM of biotinylated NAD, and denatured DNA) was added to each well of assay plates (96-well multiplate) previously coated with histone protein. Further added was 12.5 μL/well of test compound diluted with “PARP Buffer” (50 mM Tris-hydrochloric acid buffer (pH 8.0) containing 25 mM of MgCl2) and 12.5 μL/well (final concentration: 0.3 unit/50 μL/well) of “HSA PARP Enzyme” diluted with “PARP Buffer” in that order. The mixture was allowed to react at room temperature for 30 minutes. Enzyme reaction of PARP was suspended by discarding the reaction solution and rinsing with a phosphate buffer. Then, 50 μL/well of “Strep-HRP” (streptavidin-labeled horseradish peroxidase) was added and allowed to react at 37° C. for 20 to 30 minutes to bind to biotin-labeled ADP-ribosylated histone. After the reaction solution was discarded, resultings were rinsed with a phosphate buffer, and 50 μL/well of calorimetric substrate TACS-Sapphire was added to the mixture to react at room temperature for 5 to 10 minutes in the dark.
The reaction was terminated by adding 50 μL/well of 0.2 N hydrochloric acid solution, and the absorbance at 450 nm was measured with a microplate reader.

Another series has as its system U937 cells. As to the kind of experiment: Inhibitory effect against active oxygen-induced cell injury with U937 cells. Format: cell-based. The settings on record: propidium iodide fluorescence. As for the experimental part: U937 cells were suspended in RPMI 1640 without serum, and were seeded at a concentration of 1×10^4 cells/50 μL/well in a solid assay plate (produced by Corning, black, tissue culture treated, Type: 3916). After adding 1 μL/well of test compound solution in DMSO, 50 μL/well of 20 mM hydrogen peroxide solution was added, followed by incubation at 37° C. for 3 hours in an atmosphere of 5% CO2. Then, 2 μL/well of 1.5 mM propidium iodide solution was added and incubation was further carried out at 37° C. for 1 hour. The fluorescence was measured with a fluorescence plate reader ARVO (excitation wavelength: 530 nm, fluorescence wavelength: 620 nm) to investigate hydrogen peroxide solution-induced necrosis inhibition.

Setting [1] is: Homo sapiens, U-937, hydrogen peroxide-induced necrosis.

T1 sequence (P09874 whole entry): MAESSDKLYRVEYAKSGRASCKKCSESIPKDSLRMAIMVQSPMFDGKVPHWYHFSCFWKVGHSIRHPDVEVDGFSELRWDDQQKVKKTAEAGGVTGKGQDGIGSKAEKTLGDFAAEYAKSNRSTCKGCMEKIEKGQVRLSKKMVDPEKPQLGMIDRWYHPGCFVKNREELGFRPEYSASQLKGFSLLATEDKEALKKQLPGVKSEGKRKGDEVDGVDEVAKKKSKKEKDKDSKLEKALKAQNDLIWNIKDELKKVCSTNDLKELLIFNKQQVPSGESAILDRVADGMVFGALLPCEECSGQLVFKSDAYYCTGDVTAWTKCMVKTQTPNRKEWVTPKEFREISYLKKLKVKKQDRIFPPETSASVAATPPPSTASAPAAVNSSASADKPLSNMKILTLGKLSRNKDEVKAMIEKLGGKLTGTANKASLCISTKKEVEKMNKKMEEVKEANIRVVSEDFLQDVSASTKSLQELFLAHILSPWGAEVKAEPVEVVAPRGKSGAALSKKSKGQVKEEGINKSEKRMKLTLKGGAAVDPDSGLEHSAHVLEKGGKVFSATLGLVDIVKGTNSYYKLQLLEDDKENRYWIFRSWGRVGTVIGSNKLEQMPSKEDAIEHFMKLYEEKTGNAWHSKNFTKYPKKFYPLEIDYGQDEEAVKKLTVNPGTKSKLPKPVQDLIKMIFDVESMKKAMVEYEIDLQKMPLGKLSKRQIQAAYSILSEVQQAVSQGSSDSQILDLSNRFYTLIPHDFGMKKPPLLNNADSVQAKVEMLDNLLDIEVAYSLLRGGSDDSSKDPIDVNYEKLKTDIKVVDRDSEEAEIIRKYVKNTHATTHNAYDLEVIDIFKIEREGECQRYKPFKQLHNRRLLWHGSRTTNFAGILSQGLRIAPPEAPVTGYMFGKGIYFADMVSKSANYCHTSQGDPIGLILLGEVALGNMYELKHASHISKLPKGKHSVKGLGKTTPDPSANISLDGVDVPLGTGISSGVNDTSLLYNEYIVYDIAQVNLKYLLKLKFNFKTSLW

The molecule “Mixture of (3S,7S)-7-amino-3-(3,4-difluorophenyl)-6,7-dihydro-3H,5H-pyrido[3,2,1-ij]quinazoline-1(2H)-one and (3R,7R)-7-amino-3-(3,4-difluorophenyl)-6,7-dihydro-3H,5H-pyrido[3,2,1-ij]quinazoline-1(2H)-one [Example 122]” returned an IC50 against PARP of 120 nM.

Molecule `N[C@H]1CCN2c3c(cccc31)C(=O)N[C@@H]2c1ccc(OCCO)cc1` (racemic) [Example 93, Mixture of (3S,7S)-7-amino-3-(4-hydroxyethoxyphenyl)-6,7-dihydro-3H,5H-pyrido[3,2,1-ij]quinazoline-1(2H)-one and (3R,7R)-7-amino-3-(4-hydroxyethoxyphenyl)-6,7-dihydro-3H,5H-pyrido[3,2,1-ij]quinazoline-1(2H)-one] came in with a melting point of 96.8 to 97.6 °C. Besides, 6 nM corresponded to half-maximal inhibition against PARP (IC50).

Regarding “Mixture of (3S,7S)-7-amino-3-(4-bromophenyl)-6,7-dihydro-3H,5H-pyrido[3,2,1-ij]quinazoline-1(2H)-one and (3R,7R)-7-amino-3-(4-bromophenyl)-6,7-dihydro-3H,5H-pyrido[3,2,1-ij]quinazoline-1(2H)-one [Example 123]”, the results for the half-maximal inhibitory concentration (IC50) on PARP and in the series with U937 cells (hydrogen peroxide-induced necrosis) were 110 nM and 300 nM, respectively.

`CN(C)c1ccc([C@@H]2NC(=O)c3cccc4c3N2CC[C@@H]4N)cc1` (racemic) [Example 129, Mixture of (3R,7S)-7-amino-3-(4-N,N-dimethylaminophenyl)-6,7-dihydro-3H,5H-pyrido[3,2,1-ij]quinazoline-1(2H)-one and (3S,7R)-7-amino-3-(4-N,N-dimethylaminophenyl)-6,7-dihydro-3H,5H-pyrido[3,2,1-ij]quinazoline-1(2H)-one] displayed a melting point of 237.8 to 239.7 °C. The molecule also yielded an IC50 at PARP of 49 nM.

As for `O=C1CCN2c3c1cccc3C(=O)NC2c1ccc([N+](=O)[O-])cc1` (stereo not shown) [Example 17, 3-(4-nitrophenyl)-6,7-dihydro-3H,5H-pyrido[3,2,1-ij]quinazoline-1,7(2H)-dione], the melting point is 198.8 to 209.3 °C. On PARP, this molecule yielded an IC50 of 240 nM. Moreover, the IC50 with U937 cells (setting [1]) was found to be 1200 nM.

On to `COc1ccc(C2NC(=O)c3cccc4c3N2CCC4N)cc1` (stereo not shown) [Example 4, 7-amino-3-(4-methoxyphenyl)-6,7-dihydro-3H,5H-pyrido[3,2,1-ij]quinazolinone-1(2H)-one], for which the melting point is 139.7 to 145.9 °C. At PARP, the IC50 was 58 nM. Moreover, the concentration for half-maximal inhibition (IC50) with U937 cells (setting [1]) turned out to be 610 nM.

`COc1ccc(C2NC(=O)c3cccc4c3N2CCC4=O)cc1O` (stereo not shown) [Example 28, 3-(3-hydroxy-4-methoxyphenyl)-6,7-dihydro-3H,5H-pyrido[3,2,1-ij]quinazoline-1,7(2H)-dione] came in with a melting point of 204.7 to 212.2 °C.

In turn, `O=C1CCN2c3c1cccc3C(=O)NC2c1ccc(F)c(F)c1` (stereo not shown) [Example 20, 3-(3,4-difluorophenyl)-6,7-dihydro-3H,5H-pyrido[3,2,1-ij]quinazoline-1,7(2H)-dione] showed a melting point of 184 to 189.6 °C.

As to `CN(C)c1ccc(C2NC(=O)c3cccc4c3N2CCC4=O)cc1` (stereo not shown) [Example 48, 3-(4-N,N-dimethylaminophenyl)-6,7-dihydro-3H,5H-pyrido[3,2,1-ij]quinazoline-1,7(2H)-dione], the melting point fell in the range of 198.7 to 202.6 °C.

Turning to `O=C1CCN2c3c1cccc3C(=O)NC2c1ccccc1` (stereo not shown) [Example 15, 3-(phenyl)-6,7-dihydro-3H,5H-pyrido[3,2,1-ij]quinazoline-1,7(2H)-dione], the melting point was in the range of 172.1 to 180.4 °C.

The molecule `O=C1NC(c2ccc(Cl)cc2)N2CCC(=NO)c3cccc1c32` (stereo not shown) [Example 78] came in with a melting point of 210.6 to 217.2 °C.

Turning to `O=C1NC(c2ccc([N+](=O)[O-])cc2)N2CCC(=NO)c3cccc1c32` (stereo not shown) [Example 73, 7-hydroxyimino-3-(4-nitrophenyl)-6,7-dihydro-3H,5H-pyrido[3,2,1-ij]quinazoline-1(2H)-one], the melting point fell in the range of 220 to 224.7 °C.

With `COc1ccc(C2NC(=O)c3cccc4c3N2CCC4=O)cc1Cl` (stereo not shown) [Example 42, 3-(3-chloro-4-methoxyphenyl)-6,7-dihydro-3H,5H-pyrido[3,2,1-ij]quinazoline-1,7(2H)-dione], the melting point fell in the range of 174.5 to 176.9 °C.

The molecule `CN(C)CCCOc1ccc(C2NC(=O)c3cccc4c3N2CCC4=O)cc1` (stereo not shown) [Example 26, 3-(4-(3-N,N-dimethylaminopropoxy)phenyl)-6,7-dihydro-3H,5H-pyrido[3,2,1-ij]quinazoline-1,7(2H)-dione] gave a melting point of 174.3 to 178.2 °C.

`CON=C1CCN2c3c(cccc31)C(=O)NC2c1ccc(OC)c(O)c1` (stereo not shown) [Example 55, 3-(3-hydroxy-4-methoxyphenyl)-7-methoxyimino-6,7-dihydro-3H,5H-pyrido[3,2,1-ij]quinazoline-1(2H)-one] showed a melting point of 185.3 to 189.8 °C.

`Cc1ccc(C2NC(=O)c3cccc4c3N2CCC4=O)cc1` (stereo not shown) [Example 18, 3-(4-methylphenyl)-6,7-dihydro-3H,5H-pyrido[3,2,1-ij]quinazoline-1,7(2H)-dione] came in with a melting point of 172.1 to 175.8 °C.

Molecule `COc1ccc(C2NC(=O)c3cccc4c3N2CCC4=NO)cc1F` (stereo not shown) [Example 66, 3-(3-fluoro-4-methoxyphenyl)-7-hydroxyimino-6,7-dihydro-3H,5H-pyrido[3,2,1-ij]quinazoline-1(2H)-one] had a melting point of 260.3 to 261.6 °C. The molecule also had an IC50 in the series on U937 cells (setting [1]) of 1700 nM.

In turn, `COc1ccc([C@H]2NC(=O)c3cccc4c3N2CC[C@@H]4N)cc1F` (racemic) [Example 99, Mixture of (3S,7S)-7-amino-3-(3-fluoro-4-methoxyphenyl)-6,7-dihydro-3H,5H-pyrido[3,2,1-ij]quinazoline-1(2H)-one and (3R,7R)-7-amino-3-(3-fluoro-4-methoxyphenyl)-6,7-dihydro-3H,5H-pyrido[3,2,1-ij]quinazoline-1(2H)-one] had a melting point of 128.5 to 137.4 °C. At PARP, this molecule showed an IC50 of 42 nM.

As to `O=C1NC(c2ccc(F)c(F)c2)N2CCC(=NO)c3cccc1c32` (stereo not shown) [Example 75, 3-(3,4-difluorophenyl)-7-hydroxyimino-6,7-dihydro-3H,5H-pyrido[3,2,1-ij]quinazoline-1(2H)-one], the melting point lay in the range of 218.4 to 222.3 °C.

For the molecule `N[C@H]1CCN2c3c(cccc31)C(=O)N[C@@H]2c1cccnc1` (racemic) [Example 100, Mixture of (3S,7S)-7-amino-3-(3-pyridyl)-6,7-dihydro-3H,5H-pyrido[3,2,1-ij]quinazoline-1(2H)-one and (3R,7R)-7-amino-3-(3-pyridyl)-6,7-dihydro-3H,5H-pyrido[3,2,1-ij]quinazoline-1(2H)-one], the melting point was 127 to 131.2 °C. The molecule further showed an IC50 against PARP of 170 nM.

In the case of `Cc1ccc(C2NC(=O)c3cccc4c3N2CCC4=NO)cc1` (stereo not shown) [Example 77, 7-hydroxyimino-3-(4-methylphenyl)-6,7-dihydro-3H,5H-pyrido[3,2,1-ij]quinazoline-1(2H)-one], the melting point is 215.4 to 219 °C.

As for `CON=C1CCN2c3c(cccc31)C(=O)NC2c1ccc(OC)c(Br)c1` (stereo not shown) [Example 54, (3-bromo-4-methoxyphenyl)-7-methoxyimino-6,7-dihydro-3H,5H-pyrido[3,2,1-ij]quinazoline-1(2H)-one], the melting point lay within 218.7 to 221.7 °C.

`CC(C)Oc1ccc(C2NC(=O)c3cccc4c3N2CCC4=O)cc1` (stereo not shown) [Example 37, 3-(4-isopropoxyphenyl)-6,7-dihydro-3H,5H-pyrido[3,2,1-ij]quinazoline-1,7(2H)-dione] gave a melting point of 175.8 to 177.1 °C.

In turn, `COc1ccc(C2NC(=O)c3cccc4c3N2CCC4NC(=O)CCN2CCCCC2)cc1` (stereo not shown) [Example 133, 7-[3-(piperidine-1-yl)propanoyl]amino-3-(4-methoxyphenyl)-6,7-dihydro-3H,5H-pyrido[3,2,1-ij]quinazoline-1(2H)-one] had a melting point of 186 to 187.2 °C.
